Data reported in US11819476B2, “Rapamycin analogs and uses thereof” (Janssen Pharmaceutica NV, priority 2019, dated 2023).
Entries after “also recorded” stand apart in the source; their conditions may differ.

Legend:
Format in all cases: cell-based
pS6K1 in MCF7 = test: AlphaLISA Ultra pS6K1 Assay; settings: Homo sapiens, 1.5 h; MCF7 cells, 90 min incubation
Protocol: Example 74: AlphaLISA Ultra pS6K1 Assay
Assay Protocol: • 1. Seed MCF-7 cells in Corning 3701 plate and incubate for 20˜24 hour. 12,000˜16,000 cells will be seeded in 36 μL medium per well. • 2. Change the culture medium with fresh medium and incubate for another 2 hours. • 3. Add 12 μL (4×) compounds into the cell plate by HAMILTON. Final DMSO concentration is 0.5%. Incubate for 90 minutes. • 4. Aspirate 38 μL by HAMILTON, 10 μL rest per well. • 5. Add 10 μL 2× lysis buffer using HAMILTON; total volume in wells is 20 μL. Allow cells to shake for 30 min. Cover plate by plastic foil and store plate at −80° C. up to analysis. • 6. Thaw cell lysate at RT and transfer 10 μL lysate to assay plate (Optiplate-384). • 7. Add 5 μL acceptor beads into assay plate and incubation for 2 hours • 8. Add 5 μL donor beads and incubation for 2 hours • 9. Count the plate by EnSpire Multimode Plate Reader

mTORC1 over mTORC2 = test: mTORC1 selectivity over mTORC2 at 24 hrs (pS6K1 and pAKT assays); settings: for mTORC1 selective @ 24 hrs: selectivity for mTORC1 over mTORC2 at 24 hrs
Protocol: (§1) Example 76: Western Blot Based pS6K1 and pAKT Assay at 24 and 48 Hour Timepoints
(§2) Assay Protocol: • 1. Seed six well plate with 500,000 PC3 cells per well and incubate for […]. • 2. Add compounds into the cell plate. Incubate for 24 to 48 hours. • 4. Plate is placed on ice and the media is removed via aspiration. The wells are washed with 1 mL of 1×PBS and then fully aspirated. • 5. 110 μL of 1% Triton Lysis Buffer is added and each well is scraped vigorously. • 6. Cell homogenates are transferred to 1.5 mL eppendorf tubes on ice and spun down at 4° C. for 10 minutes at 10,000 rpm. • 7. Protein concentration of resulting cell lysates were quantified utilizing a Bradford assay and the samples run analyzed via Western blot on 4-12% Bis/Tris gels with 1×MES buffer. • 8. The gels were transferred onto membranes at 50V for 100 minutes, blocked with Odyssey Blocking buffer for 30 minutes then incubated overnight with primary antibody (pS6K1 T389 Rabbit or pAkt S473 Rabbit) overnight at 4° C. on a rotator. • 9. The membranes were washed 3× with TBS-T with a 5 minute incubation between each wash then incubated with secondary antibody (LiCor IRDye 800 Donkey Anti Rabbit) for at least 30 minutes. • 10. The membranes were washed 3× with TBS-T with a 5 minute incubation between each wash. • 11. The gels were then incubated for 5 minutes with PBS at room temperature then imaged using a Li-Cor.
The compound numbers correspond to the compound numbers in Table 1.
Compounds that are not selective at the 24 hrs mark are indicated by “NO” in the “mTORC1 selective @ 24 hrs” column of Table 4. Compounds that partially retain selectivity for mTORC1 inhibition over mTORC2 are indicated by “Partial” in the “mTORC1 selective @ 24 hrs” column of Table 4.

[1] = tested on: pS6K1 T389 in PC3 cells (mTORC1 pathway); test: Western blot based pS6K1 assay (mTORC1 pathway); settings: 24 hours
Protocol: as §1, §2
PC3 cells were treated with everolimus (0.1 μM, 0.01 μM, and 0.001 μM) or I-9 ([…], 0.1 μM, 0.01 μM, and 0.001 μM) for 24 hours.
The methods employed were substantially similar to those described above. Compounds were evaluated in PC3 cells. Additional cell lines that may be used include Jurkat cells, wild-type mouse embryotic fibroblast (MEF) cells, tuberous sclerosis 2 (TSC2) negative (TSC−/−) MEF cells, and tuberous sclerosis 2 (TSC2) positive (TSC+/+) MEF cells. Cells are incubated with compounds of the present invention for various time periods (e.g., 5 minutes, 15 minutes, 30 minutes, 90 minutes, 24 hours, or 48 hours), and evaluated according to known methodologies, such as those herein described.

[2] = tested on: pAkt S473 in PC3 cells (mTORC2); test: Western blot based pAKT assay (mTORC2 pathway); settings: 24 hours
Protocol: as §1
as §2, with “The membranes were washed 3× with TBS-T with a 5 minute incubation between each wash then incubated with secondary antibody (LiCor IRDye 800 Donkey Anti Rabbit) for at least 30 minutes. • 10. The membranes were washed 3× with TBS-T with a 5 minute incubation between each wash. • 11. The gels were then incubated for 5 minutes with PBS at room temperature then imaged using a Li-Cor.” left out
The methods employed were substantially similar to those described above. Compounds were evaluated in PC3 cells. […] Cells are incubated with compounds of the present invention for various time periods (e.g., 5 minutes, 15 minutes, 30 minutes, 90 minutes, 24 hours, or 48 hours), and evaluated according to known methodologies, such as those herein described.

Row | Structure (SMILES) | IC50 (pS6K1 in MCF7) [nM] | mTORC1 selective @ 24 hrs (mTORC1 over mTORC2) | inhibition of the mTORC1 pathway (pS6K1, Western blot) [1] | inhibition of mTORC2 (Akt phosphorylation, pAkt, Western blot) [2] | selectivity over mTORC2 as measured by the impact of pAKT (mTORC1 over mTORC2; at 24 hours, depends on size of C-7 group)
1 | CO[C@@H]1C[C@H](C[C@@H](C)[C@@H]2CC(=O)[C@H](C)/C=C(\C)[C@@H](O)[C@@H](OC)C(=O)[C@H](C)C[C@H](C)/C=C/C=C/C=C(\C)[C@@H](OCCCCCO)C[C@@H]3CC[C@@H](C)[C@@](O)(O3)C(=O)C(=O)N3CCCC[C@H]3C(=O)O2)CC[C@H]1O [Example I-35, (21E,23E,25E,26E,33R,34S,35R,36R,38S,40S,42S,43S,44R,45R,54R)-44,54-dihydroxy-43-[(1R)-2-[(1S,3R,4R)-4-hydroxy-3-methoxy-cyclohexyl]-1-methyl-ethyl]-42-(5-hydroxypentoxy)-45-methoxy-33,34,35,36,46,47-hexamethyl-65,66-dioxa-55-azatricyclohexatriaconta-21,23,25(46),26(47)-tetraene-48,49,50,51,52-pentone] | 0.1 to 1 | Yes | – | – | –
2 | CO[C@@H]1C[C@H](C[C@@H](C)[C@@H]2CC(=O)[C@H](C)/C=C(\C)[C@@H](O)[C@@H](OC)C(=O)[C@H](C)C[C@H](C)/C=C/C=C/C=C(\C)[C@@H](OCCOC3COC3)C[C@@H]3CC[C@@H](C)[C@@](O)(O3)C(=O)C(=O)N3CCCC[C@H]3C(=O)O2)CC[C@H]1OCCO [Example I-9, (23E,25E,27E,28E,34R,35S,36R,37R,39S,41S,43S,44S,46R,47R,56R)-46,56-dihydroxy-44-[(1R)-2-[(1S,3R,4R)-4-(2-hydroxyethoxy)-3-methoxy-cyclohexyl]-1-methyl-ethyl]-47-methoxy-34,35,36,37,48,49-hexamethyl-43-[2-(oxetan-3-yloxy)ethoxy]-67,68-dioxa-57-azatricyclohexatriaconta-23,25,27(48),28(49)-tetraene-50,51,52,53,54-pentone] | 0.1 to 1 | Yes | reduction in pS6K1; also recorded: moderate concentration dependent inhibition | did not reduce | –
3 | CO[C@@H]1C[C@H](C[C@@H](C)[C@@H]2CC(=O)[C@H](C)/C=C(\C)[C@@H](O)[C@@H](OC)C(=O)[C@H](C)C[C@H](C)/C=C/C=C/C=C(\C)C(OCCCCS(N)(=O)=O)C[C@@H]3CC[C@@H](C)[C@@](O)(O3)C(=O)C(=O)N3CCCC[C@H]3C(=O)O2)CC[C@H]1OCCO (some centres unmarked) [Example I-19] | – | – | – | – | marked selectivity
4 | CO[C@@H]1C[C@H](C[C@@H](C)[C@@H]2CC(=O)[C@H](C)/C=C(\C)[C@@H](O)[C@@H](OC)C(=O)[C@H](C)C[C@H](C)/C=C/C=C/C=C(\C)[C@@H](OCCCO)C[C@@H]3CC[C@@H](C)[C@@](O)(O3)C(=O)C(=O)N3CCCC[C@H]3C(=O)O2)CC[C@H]1O [Example I-36, (21E,23E,25E,26E,31R,32S,33R,34R,36S,38S,40S,41S,42S,43R,52R)-42,52-dihydroxy-41-[(1R)-2-[(1S,3R,4R)-4-hydroxy-3-methoxy-cyclohexyl]-1-methyl-ethyl]-40-(3-hydroxypropoxy)-43-methoxy-31,32,33,34,44,45-hexamethyl-63,64-dioxa-53-azatricyclohexatriaconta-21,23,25(44),26(45)-tetraene-46,47,48,49,50-pentone] | 0.1 to 1 | Yes | – | – | –
5 | CO[C@@H]1C[C@H](C[C@@H](C)[C@@H]2CC(=O)[C@H](C)/C=C(\C)[C@@H](O)[C@@H](OC)C(=O)[C@H](C)C[C@H](C)/C=C/C=C/C=C(\C)[C@@H](OCCOc3ccccc3)C[C@@H]3CC[C@@H](C)[C@@](O)(O3)C(=O)C(=O)N3CCCC[C@H]3C(=O)O2)CC[C@H]1OCCO [Example I-7, (26E,28E,30E,31E,38R,39S,40R,41R,43S,45S,47S,48S,49R,50R,59R)-49,59-dihydroxy-48-[(1R)-2-[(1S,3R,4R)-4-(2-hydroxyethoxy)-3-methoxy-cyclohexyl]-1-methyl-ethyl]-50-methoxy-38,39,40,41,51,52-hexamethyl-47-(2-phenoxyethoxy)-69,70-dioxa-60-azatricyclohexatriaconta-26,28,30(51),31(52)-tetraene-53,54,55,56,57-pentone] | 1 to 10 | Yes | – | – | –
6 | CO[C@@H]1C[C@H](C[C@@H](C)[C@@H]2CC(=O)[C@H](C)/C=C(\C)[C@@H](O)[C@@H](OC)C(=O)[C@H](C)C[C@H](C)/C=C/C=C/C=C(\C)[C@@H](OCCS(=O)(=O)CCS(=O)(=O)CCO)C[C@@H]3CC[C@@H](C)[C@@](O)(O3)C(=O)C(=O)N3CCCC[C@H]3C(=O)O2)CC[C@H]1O [Example I-65, (21E,23E,25E,26E,34R,35S,36R,37R,39S,41S,43S,44S,45R,46R,55R)-45,55-dihydroxy-43-[2-[2-(2-hydroxyethylsulfonyl)ethylsulfonyl]ethoxy]-44-[(1R)-2-[(1S,3R,4R)-4-hydroxy-3-methoxy-cyclohexyl]-1-methyl-ethyl]-46-methoxy-34,35,36,37,47,48-hexamethyl-70,71-dioxa-56-azatricyclohexatriaconta-21,23,25(47),26(48)-tetraene-49,50,51,52,53-pentone] | – | – | strong inhibition | – | –
7 | CO[C@H]1C[C@@H]2CC[C@@H](C)[C@@](O)(O2)C(=O)C(=O)N2CCCC[C@H]2C(=O)O[C@H]([C@H](C)C[C@@H]2CC[C@@H](OCCO)[C@H](OC)C2)CC(=O)[C@H](C)/C=C(\C)[C@@H](O)[C@@H](OC)C(=O)[C@H](C)C[C@H](C)/C=C/C=C/C=C/1C [everolimus, reference compound] | – | – | reduction in pS6K1; also recorded: strong inhibition | inhibition of S6K1 phosphorylation (S^473) | –
